SMILES strings stand for the structures. pEC50: −log10 of the molar value.

Test [1] addresses T1, STAT6 (Homo sapiens, UniProt P42226).
T1 construct: These cells express endogenous STAT6; host or cells: HeLa LgBiT clone 4.14
T1 sequence (P42226 1-847): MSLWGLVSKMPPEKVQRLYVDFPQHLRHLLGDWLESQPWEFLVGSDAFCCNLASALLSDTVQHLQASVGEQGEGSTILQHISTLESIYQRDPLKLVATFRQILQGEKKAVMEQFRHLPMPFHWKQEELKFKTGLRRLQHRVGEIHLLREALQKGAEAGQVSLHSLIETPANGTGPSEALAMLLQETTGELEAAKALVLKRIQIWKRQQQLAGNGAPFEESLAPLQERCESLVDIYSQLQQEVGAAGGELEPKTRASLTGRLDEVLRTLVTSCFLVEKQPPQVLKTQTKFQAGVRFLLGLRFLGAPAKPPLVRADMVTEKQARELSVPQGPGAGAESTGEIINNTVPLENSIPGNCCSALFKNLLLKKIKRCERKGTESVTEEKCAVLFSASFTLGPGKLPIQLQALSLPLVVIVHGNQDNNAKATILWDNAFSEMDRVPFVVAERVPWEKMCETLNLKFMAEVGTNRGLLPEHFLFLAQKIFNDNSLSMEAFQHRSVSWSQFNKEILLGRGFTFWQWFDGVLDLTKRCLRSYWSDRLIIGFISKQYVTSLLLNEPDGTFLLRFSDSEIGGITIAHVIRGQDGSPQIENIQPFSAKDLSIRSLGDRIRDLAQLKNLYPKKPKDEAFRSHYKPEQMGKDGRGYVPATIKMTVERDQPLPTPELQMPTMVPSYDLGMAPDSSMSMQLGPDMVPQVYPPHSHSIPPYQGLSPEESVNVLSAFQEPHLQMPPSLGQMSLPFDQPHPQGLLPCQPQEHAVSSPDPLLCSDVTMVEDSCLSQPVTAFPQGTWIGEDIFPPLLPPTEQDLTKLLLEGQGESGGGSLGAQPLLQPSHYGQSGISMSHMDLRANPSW
The experiment in a line: Stat6 Degrader Assay (HiBiT based, HeLa LgBiT clone 4.14). Type of test: cell-based. The conditions noted are these: HeLa LgBiT clone 4.14 HiBiT-STAT6, 4-24 h incubation; values given for compounds with >80% Emax; geometric mean; read-out: STAT6 degradation DC50. Summed up: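 Luminescence from HiBiT-STAT6 complementing stably expressed LgBiT in HeLa clone 4.14 reports remaining STAT6 protein. Cells (5000/well) exposed to compound for 4-24 h at 37° C; read 0.5 h after Nano-Glo addition. 100% degradation window set with 50 μM terfenadine; percent degradation plotted against concentration.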

Test [2] deals with Eotaxin-3 release in human whole blood stimulated with IL-4. The experiment in a line: Human Whole Blood Eotaxin-3 Assay (IL-4 stimulated eotaxin-3 release). Type of test: cell-based. The conditions noted are these: IL-4 stimulation, 48 h, values given for compounds with >80% Emax, geometric mean. Summed up: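 Eotaxin-3 (CCL26) release measured by MSD kit in plasma supernatant after 48 h IL-4 stimulation ([…]) of human whole blood. Compounds added in triplicate 4-fold dilutions 2 h before stimulation; 0.5% DMSO final, 37° C, 5% CO2.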

With `CNc1ccn(-c2ccnc3c2cc([C@H](C)N2CC=C(c4c(C)cc(C(=O)N5CCC(CN6CCN(Cc7cc8c(cc7F)N([C@H]7CCC(=O)NC7=O)C(=O)C87CC7)C[C@@H]6C)CC5)cc4F)CC2)n3C)c(=O)c1` (single isomer, unassigned) [Example 3u194], the DC50 in test [1] stood at 1.7 nM. The molecule further had a pEC50 in test [2] of 9.05.
The matching figures for `CNc1ccn(-c2ccnc3c2cc([C@H](C)N2CC=C(c4c(C)cc(C(=O)N5CCC(CN6CCN(Cc7cc8c(cc7F)N([C@@H]7CCC(=O)NC7=O)C(=O)C87CC7)C[C@@H]6C)CC5)cc4F)CC2)n3C)c(=O)c1` (single isomer, unassigned) [Example 3u195]: 1.6 nM and 8.66.
In the case of `CNc1ccn(-c2ccnc3c2cc([C@H](C)N2CCC(c4c(C)cc(C(=O)N5CCC(CN6CCN(Cc7ccc8c(c7)n(C7CC7)c(=O)n8[C@H]7CCC(=O)NC7=O)C[C@@H]6C)CC5)cc4F)CC2)n3C)c(=O)c1` (single isomer, unassigned) [Example 3u198], the DC50 in test [1] was found to be 1.2 nM. The molecule also showed a pEC50 in test [2] of 8.80.
For `CNc1ccn(-c2ccnc3c2cc([C@H](C)N2CCC(c4c(C)cc(C(=O)N5CCC(CN6CCN(Cc7ccc8c(c7)n(C7CC7)c(=O)n8[C@@H]7CCC(=O)NC7=O)C[C@@H]6C)CC5)cc4F)CC2)n3C)c(=O)c1` (single isomer, unassigned) [Example 3u199], the DC50 in test [1] worked out at 1.1 nM. In test [2], the pEC50 is 8.57.
The matching figures for `CNc1ccn(-c2ccnc3c2cc([C@H](C)N2CC=C(c4c(F)cc(C(=O)N5CCC(CN6CCN(Cc7ccc8c(c7)C(C)(C)C(=O)N8[C@H]7CCC(=O)NC7=O)C[C@@H]6C)CC5)cc4F)CC2)n3C)c(=O)c1` (single isomer, unassigned) [Example 3u202]: 1.9 nM and 8.59.
As to `CNc1ccn(-c2ccnc3c2cc([C@H](C)N2CC=C(c4c(F)cc(C(=O)N5CCC(CN6CCN(Cc7ccc8c(c7)C(C)(C)C(=O)N8[C@@H]7CCC(=O)NC7=O)C[C@@H]6C)CC5)cc4F)CC2)n3C)c(=O)c1` (single isomer, unassigned) [Example 3u203], the DC50 in test [1] is 3.4 nM. In addition, the pEC50 in test [2] was 8.28.
On to `CNc1ccn(-c2ccnc3c2cc(CN2CCC(c4c(F)cc(C(=O)N5CCC(CN6CCN(Cc7ccc8c(c7)C(C)(C)C(=O)N8[C@H]7CCC(=O)NC7=O)C[C@@H]6C)CC5)cc4F)CC2)n3C)c(=O)c1` (single isomer, unassigned) [Example 3u205], for which, in test [1], the DC50 amounted to 3 nM. In test [2], the pEC50 was 8.23.
As for `CNc1ccn(-c2ccnc3c2cc(CN2CCC(c4c(F)cc(C(=O)N5CCC(CN6CCN(Cc7ccc8c(c7)C(C)(C)C(=O)N8[C@@H]7CCC(=O)NC7=O)C[C@@H]6C)CC5)cc4F)CC2)n3C)c(=O)c1` (single isomer, unassigned) [Example 3u206], the DC50 in test [1] was found to be 0.4 nM. In addition, in test [2], the pEC50 was 7.96.
The matching figures for `CNc1ccn(-c2ccnc3c2cc([C@H](C)N2CC=C(c4c(C)cc(C(=O)N5CCC(CN6CCN(Cc7cc8c(cc7F)n([C@H]7CCC(=O)NC7=O)c(=O)n8C)C[C@@H]6C)CC5)cc4F)CC2)n3C)c(=O)c1` (single isomer, unassigned) [Example 3u208]: 0.6 nM and 9.10.
Turning to `CNc1ccn(-c2ccnc3c2cc([C@H](C)N2CC=C(c4c(C)cc(C(=O)N5CCC(CN6CCN(Cc7cc8c(cc7F)n([C@@H]7CCC(=O)NC7=O)c(=O)n8C)C[C@@H]6C)CC5)cc4F)CC2)n3C)c(=O)c1` (single isomer, unassigned) [Example 3u209], the DC50 in test [1] was 7.3 nM. In test [2], this molecule showed a pEC50 of 9.15.
With `CNc1ccn(-c2ccnc3c2cc([C@H](C)N2CC=C(c4c(F)cc(C(=O)N5CCC(CN6CCN(Cc7ccc8c(c7)n(C7CC7)c(=O)n8[C@H]7CCC(=O)NC7=O)C[C@@H]6C)CC5)cc4F)CC2)n3C)c(=O)c1` (single isomer, unassigned) [Example 3u211], the DC50 in test [1] is 0.5 nM. The molecule also had a pEC50 in test [2] of 9.30.
The matching figures for `CNc1ccn(-c2ccnc3c2cc([C@H](C)N2CC=C(c4c(F)cc(C(=O)N5CCC(CN6CCN(Cc7ccc8c(c7)n(C7CC7)c(=O)n8[C@@H]7CCC(=O)NC7=O)C[C@@H]6C)CC5)cc4F)CC2)n3C)c(=O)c1` (single isomer, unassigned) [Example 3u212]: 7.5 nM and 9.10.
The matching figures for `CNc1cc(=O)n(-c2ccnc3c2cc(CN2CC=C(c4c(F)cc(C(=O)N5CCC(CN6CCN(Cc7ccc8c(c7)n(C7CC7)c(=O)n8[C@@H]7CCC(=O)NC7=O)C[C@@H]6C)CC5)cc4F)CC2)n3C)cc1F` (single isomer, unassigned) [Example 3u215]: 3.5 nM and 8.25.
The matching figures for `CNc1ccn(-c2ccnc3c2cc(CN2CCC(c4c(F)cc(C(=O)N5CCC(CN6CCN(Cc7ccc8c(c7)n(C7CC7)c(=O)n8[C@H]7CCC(=O)NC7=O)C[C@@H]6C)CC5)cc4F)CC2)n3C)c(=O)c1` (single isomer, unassigned) [Example 3u217]: 1.8 nM and 9.22.
In the case of `CNc1ccn(-c2ccnc3c2cc(CN2CCC(c4c(F)cc(C(=O)N5CCC(CN6CCN(Cc7ccc8c(c7)n(C7CC7)c(=O)n8[C@@H]7CCC(=O)NC7=O)C[C@@H]6C)CC5)cc4F)CC2)n3C)c(=O)c1` (single isomer, unassigned) [Example 3u218], in test [1], the DC50 worked out at 2.6 nM. Also, in test [2], the pEC50 is 9.10.
The matching figures for `CNc1cc(=O)n(-c2ccnc3c2cc(CN2CCC(c4c(F)cc(C(=O)N5CCC(CN6CCN(Cc7ccc8c(c7)C7(CC7)C(=O)N8[C@H]7CCC(=O)NC7=O)C[C@@H]6C)CC5)cc4F)CC2)n3C)cc1F` (single isomer, unassigned) [Example 3u220]: 1.3 nM and 8.62.
The matching figures for `CNc1cc(=O)n(-c2ccnc3c2cc(CN2CCC(c4c(F)cc(C(=O)N5CCC(CN6CCN(Cc7ccc8c(c7)C7(CC7)C(=O)N8[C@@H]7CCC(=O)NC7=O)C[C@@H]6C)CC5)cc4F)CC2)n3C)cc1F` (single isomer, unassigned) [Example 3u221]: 1.9 nM and 8.35.
The matching figures for `CNc1ccn(-c2ccnc3c2cc(CN2CCC(c4c(F)cc(C(=O)N5CCC(CN6CCN(Cc7ccc8c(c7)C7(CC7)C(=O)N8[C@H]7CCC(=O)NC7=O)C[C@@H]6C)CC5)cc4F)CC2)n3C)c(=O)c1` (single isomer, unassigned) [Example 3u223]: 0.9 nM and 8.89.
Regarding `CNc1ccn(-c2ccnc3c2cc(CN2CCC(c4c(F)cc(C(=O)N5CCC(CN6CCN(Cc7ccc8c(c7)C7(CC7)C(=O)N8[C@@H]7CCC(=O)NC7=O)C[C@@H]6C)CC5)cc4F)CC2)n3C)c(=O)c1` (single isomer, unassigned) [Example 3u224], in test [1], the 50% degradation concentration (DC50) was determined as 1.3 nM. Besides, the pEC50 in test [2] is 8.82.
In the case of `CNc1ccn(-c2ccnc3c2cc([C@H](C)N2CC=C(c4c(C)cc(C(=O)N(C)c5ccc(C6CCN(Cc7ccc8c(c7)n(C)c(=O)n8[C@H]7CCC(=O)NC7=O)CC6)cc5)cc4F)CC2)n3C)c(=O)c1` (single isomer, unassigned) [Example 3u226], the DC50 in test [1] turned out to be 0.05 nM. In test [2], this molecule gave a negative logarithm of the EC50 (pEC50) of 9.70.
Take `CNc1ccn(-c2ccnc3c2cc([C@H](C)N2CC=C(c4c(C)cc(C(=O)N(C)c5ccc(C6CCN(Cc7ccc8c(c7)n(C)c(=O)n8[C@@H]7CCC(=O)NC7=O)CC6)cc5)cc4F)CC2)n3C)c(=O)c1` (single isomer, unassigned) [Example 3u227]: in test [1], the DC50 is 0.04 nM. Further, the pEC50 in test [2] was 9.52.
The matching figures for `CNc1ccn(-c2ccnc3c2cc(CN2CC=C(c4c(C)cc(C(=O)N(C)c5ccc(C6CCN(Cc7ccc8c(c7)C(C)(C)C(=O)N8[C@H]7CCC(=O)NC7=O)CC6)cc5)cc4F)CC2)n3C)c(=O)c1` (single isomer, unassigned) [Example 3u229]: 0.3 nM and 8.80.
`CNc1ccn(-c2ccnc3c2cc(CN2CC=C(c4c(C)cc(C(=O)N(C)c5ccc(C6CCN(Cc7ccc8c(c7)C(C)(C)C(=O)N8[C@@H]7CCC(=O)NC7=O)CC6)cc5)cc4F)CC2)n3C)c(=O)c1` (single isomer, unassigned) [Example 3u230]: the DC50 in test [1] is 0.4 nM. In test [2], the pEC50 was 8.70.

For the origin of these results see patent publication US20250320206A1, “STAT6 DEGRADERS” (Gilead Sciences, Inc., priority 2024, published 2025).
